According to paper PMC6367340, “Novel insights into P450 BM3 interactions with FDA-approved antifungal azole drugs” (Scientific Reports, 2019):
Entries after “also recorded” stand apart in the source; their conditions may differ. Like-named read-outs stand apart in the source and are kept apart here.

What was measured:
[1] = target: T1, WT BM3 heme domain (Priestia megaterium, UniProt P14779); test: biochemical; assay type: binding, Bacillus megaterium; conditions: for Delta Abs/Soret Peak: maximal peak-minus-trough value divided by P450 Soret peak value; for Soret Shift (final Soret wavelength at apparent saturation): starting wavelength 418 nm
T1 construct: The BM3 heme domain proteins (WT and the DM A82F/F87V variant) used in this study were expressed as described in our previous studies; made in house; host or cells: E. coli BL21 (DE3)
Text: (§1) This leads to dioxygen (O2) binding to heme iron and to the progression of the P450 catalytic cycle that leads to monooxygenation of the substrate. […] P450 UV-visible binding assays and other spectroscopic studies using azoles are often hindered by the low solubility of many of these drugs. […] The azoles used range widely in size and structure, and contain either an imidazole or a triazole functional group (or two triazole groups in the case of fluconazole). […] Spectral binding data were fitted using hyperbolic (Michaelis-Menten)[30] or tight-binding (Morrison)[31] equations, or by using the Hill function[32] in cases where there was a clear sigmoidal dependence of heme absorbance change on azole drug concentration.
(§2) Experiments were performed using a Cary 50 UV-Visible spectrophotometer (Agilent Technologies Ltd). WT and DM heme domains at concentrations of ~2–4 μM were used, and binding titrations were done by the addition of small (typically 0.2–0.4 μL) volumes of azole ligand stocks (1, 10 or 30 mM, to minimize amounts of solvent carrier used) to a 1 mL heme domain sample in a quartz cuvette. An extinction coefficient of 95 mM^−1 cm^−1 was used for the low-spin forms of the WT and DM heme domains. […] Azole drugs were obtained from Merck Chemicals (Nottingham, UK). All azole compounds used in these and other experiments done in this manuscript were sourced from Sigma Aldrich (Cambridge, UK).
(§3) Data were processed by the subtraction of the spectrum of each successive ligand-bound form (from a specific titration set) from the spectrum of the ligand-free enzyme. This produced a set of difference spectra (for each particular azole titration), from which wavelengths associated with the absorbance minimum (Amin) and maximum (Amax) were readily identified. For each titration point, an absorbance difference value was calculated as Amax minus Amin, using the same wavelength pair throughout an individual experiment. These values were then plotted against the relevant azole ligand concentrations used. […] Assays were done using 25 mM KPi (pH 7) at a constant temperature of 30 °C.

[2] = target: T2, BM3 A82F/F87V double mutant (DM) heme domain (Priestia megaterium, UniProt P14779, A83F/F88V); test: biochemical; assay type: binding, Bacillus megaterium; conditions: for Delta Abs Peak (wavelength maximum of absorbance difference spectrum) / Delta Abs Trough (wavelength minimum of absorbance difference spectrum) / Delta Abs/Soret Peak / Soret Shift (final Soret wavelength at apparent saturation): DM BM3 heme domain; for Delta Abs/Soret Peak: maximal peak-minus-trough value divided by P450 Soret peak value; for Soret Shift (final Soret wavelength at apparent saturation): starting wavelength 418 nm
T2 construct: The BM3 heme domain proteins (WT and the DM A82F/F87V variant) used in this study were expressed as described in our previous studies; made in house; host or cells: E. coli BL21 (DE3)
Text: as §1, §2, §3

[3] = tested on: P450 BM3 (CYP102A1); set-up: method as in PMID 10191269; conditions: arachidonic acid as the substrate; cited from earlier work
[4] = DM (A82F/F87V) BM3 heme domain, 25 mM KPi pH 7, 30 °C

T1 sequence (P14779 2-472): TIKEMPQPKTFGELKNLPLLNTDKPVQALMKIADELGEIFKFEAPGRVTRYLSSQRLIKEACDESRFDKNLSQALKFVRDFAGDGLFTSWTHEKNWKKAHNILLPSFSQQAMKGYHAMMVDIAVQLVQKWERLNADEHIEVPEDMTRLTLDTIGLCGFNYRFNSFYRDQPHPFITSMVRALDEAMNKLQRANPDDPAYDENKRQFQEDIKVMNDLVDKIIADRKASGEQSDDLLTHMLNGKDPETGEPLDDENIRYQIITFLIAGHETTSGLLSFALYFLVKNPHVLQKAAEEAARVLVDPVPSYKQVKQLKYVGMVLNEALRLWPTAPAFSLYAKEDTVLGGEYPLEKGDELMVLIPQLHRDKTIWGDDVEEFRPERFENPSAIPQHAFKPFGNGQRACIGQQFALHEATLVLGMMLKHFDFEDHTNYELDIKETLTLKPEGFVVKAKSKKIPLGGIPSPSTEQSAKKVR
T2 sequence (P14779 2-472 A83F/F88V): as the sequence (P14779 2-472) above, with A82F, F87V counted along it

| Compound | Kd [1] | Delta Abs Peak (wavelength maximum of absorbance difference spectrum) ([1]; WT BM3 heme domain) | Delta Abs Trough (wavelength minimum of absorbance difference spectrum) ([1]; WT BM3 heme domain) | Delta Abs Peak (wavelength maximum of absorbance difference spectrum) [2] | Delta Abs Trough (wavelength minimum of absorbance difference spectrum) [2] | Kd [2, 4] | Kd ([1]; Kd, WT BM3 heme domain, 25 mM KPi pH 7, 30 °C, NB = no binding seen in UV-visible spectroscopic titrations) | Delta Abs/Soret Peak ([1]; WT BM3 heme domain) | Soret Shift (final Soret wavelength at apparent saturation) ([1]; WT BM3 heme domain) | Delta Abs/Soret Peak [2] | Soret Shift (final Soret wavelength at apparent saturation) [2] | Tighter binding to DM heme domain than to WT heme domain ([2]; DM versus WT heme domain) | Soret spectral shift / heme absorbance change on titration (in words) ([1]; WT BM3 heme domain) | catalytic rate for substrate oxidation [3] | Kd ([2]; DM enzyme, Figure S1 legend, tight-binding (Morrison) fit) |
| --- | --- | --- | --- | --- | --- | --- | --- | --- | --- | --- | --- | --- | --- | --- | --- |
| Clc1ccc(C(Cn2ccnc2)OCc2c(Cl)cccc2Cl)c(Cl)c1 (stereo not drawn) [Isoconazole nitrate] | 12000 ± 500 nM | 436 nm | 415 nm | 435 nm | 415 nm | 440 ± 20 nM |  |  |  |  |  |  |  |  |  |
| Clc1ccc(C(Cn2ccnc2)OCc2ccsc2Cl)c(Cl)c1 (stereo not drawn) [Tioconazole] |  | 434 nm | 414 nm | 434 nm | 414 nm | 390 ± 30 nM | 24500 ± 1100 nM | 0.29 | 422 nm | 0.44 | 423 nm | ~ 50 fold |  |  |  |
| Clc1ccc(CCC(Cn2ccnc2)Sc2c(Cl)cccc2Cl)cc1 (stereo not drawn) [Butoconazole nitrate] | 3800 ± 120 nM | 434 nm | 413 nm | 433 nm | 413 nm | 470 ± 20 nM |  | 0.35 | 422 nm | 0.47 | 424 nm |  |  |  |  |
| C[C@@H](c1nc(-c2ccc(C#N)cc2)cs1)[C@](O)(Cn1cncn1)c1ccc(F)cc1F [Ravuconazole] |  |  |  | 434 nm | 413 nm | 340 ± 20 nM |  |  |  | 0.21 | 422 nm |  | failed to induce a Soret spectral shift of sufficient extent to allow Kd determination; also recorded: no significant spectral shifts |  |  |
| CC[C@@H]([C@H](C)O)n1ncn(-c2ccc(N3CCN(c4ccc(OC[C@@H]5CO[C@@](Cn6cncn6)(c6ccc(F)cc6F)C5)cc4)CC3)cc2)c1=O [Posaconazole] |  |  |  | 430 nm | 395 nm | 2690 ± 50 nM |  |  |  | 0.41 | 422 nm |  | failed to induce a Soret spectral shift of sufficient extent to allow Kd determination; also recorded: no significant spectral shifts |  |  |
| CC(C)(C)C(=O)C(Oc1ccc(Cl)cc1)n1ccnc1 (stereo not drawn) [Climbazole] | 1520 ± 20 nM | 433 nm | 413 nm | 430 nm | 408 nm | 320 ± 10 nM |  | 0.43 | 424 nm | 0.50 | 424 nm |  |  |  |  |
| Clc1ccc(C(Cn2ccnc2)OCc2csc3c(Cl)cccc23)c(Cl)c1 (stereo not drawn) [Sertaconazole nitrate] | 2440 ± 140 nM | 439 nm | 416 nm | 433 nm | 413 nm | 460 ± 10 nM |  | 0.08 | 419 nm | 0.45 | 423 nm |  |  |  |  |
| CCCCC/C=C\C/C=C\C/C=C\C/C=C\CCCC(=O)O [arachidonic acid] |  |  |  |  |  |  |  |  |  |  |  |  |  | ~ 285 s^−1 |  |
| OC(Cn1cncn1)(Cn1cncn1)c1ccc(F)cc1F [Fluconazole] |  |  |  | 434 nm | 414 nm | 2910 ± 200 nM |  |  |  | 0.19 | 421 nm |  | failed to induce a Soret spectral shift of sufficient extent to allow Kd determination |  |  |
| Clc1ccc(C(Cn2ccnc2)OCc2ccc(Sc3ccccc3)cc2)c(Cl)c1 (stereo not drawn) [Fenticonazole nitrate] | 1890 ± 50 nM | 434 nm | 415 nm | 434 nm | 414 nm | 520 ± 30 nM |  | 0.21 | 419 nm | 0.44 | 424 nm |  |  |  |  |
| c1ccc(-c2ccc(C(c3ccccc3)n3ccnc3)cc2)cc1 (stereo not drawn) [Bifonazole] | 3540 ± 50 nM | 434 nm | 413 nm | 436 nm | 413 nm | 130 ± 50 nM |  | 0.43 | 423 nm | 0.42 | 425 nm |  |  |  | 130 ± 20 nM |
| C[C@@H](c1ncncc1F)[C@](O)(Cn1cncn1)c1ccc(F)cc1F [Voriconazole] |  |  |  | 435 nm | 414 nm | 1900 ± 130 nM |  |  |  | 0.21 | 420 nm |  | failed to induce a Soret spectral shift of sufficient extent to allow Kd determination |  |  |
| CCC(C)n1ncn(-c2ccc(N3CCN(c4ccc(OCC5COC(Cn6cncn6)(c6ccc(Cl)cc6Cl)O5)cc4)CC3)cc2)c1=O (stereo not drawn) [Itraconazole] |  |  |  | 438 nm | 414 nm | 50 ± 10 nM |  |  |  | 0.16 | 421 nm |  | failed to induce a Soret spectral shift of sufficient extent to allow Kd determination; also recorded: no significant spectral shifts |  |  |
